Where “and” joins values, the source holds several entries; their conditions need not be identical. Equal values may be shown once.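 Test compounds were applied to cells in 96-well plates for 48 hours at 5 doses. GI50 marks 50% less growth. TGI: total growth inhibition.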
Experiments:
Assay in all cases: NCI tumour cell line growth inhibition, 48 h
786-0 renal = tested on: 786-0 renal
A498 renal = tested on: A498 renal
A549 NSCLC = tested on: A549 NSCLC
ACHN renal = tested on: ACHN renal
BT-549 breast = tested on: BT-549 breast
CAKI-1 renal = tested on: CAKI-1 renal
CCRF-CEM leukemia = tested on: CCRF-CEM leukemia
COLO 205 colon = tested on: COLO 205 colon
DLD-1 colon = tested on: DLD-1 colon
DMS 114 small cell lung = tested on: DMS 114 small cell lung
DMS 273 small cell lung = tested on: DMS 273 small cell lung
DU-145 prostate = tested on: DU-145 prostate
EKVX NSCLC = tested on: EKVX NSCLC
HCC-2998 colon = tested on: HCC-2998 colon
HCT-116 colon = tested on: HCT-116 colon
HCT-15 colon = tested on: HCT-15 colon
HL-60(TB) leukemia = tested on: HL-60(TB) leukemia
HOP-18 NSCLC = tested on: HOP-18 NSCLC
HOP-62 NSCLC = tested on: HOP-62 NSCLC
HOP-92 NSCLC = tested on: HOP-92 NSCLC
HS 578T breast = tested on: HS 578T breast
HT29 colon = tested on: HT29 colon
IGROV1 ovarian = tested on: IGROV1 ovarian
K-562 leukemia = tested on: K-562 leukemia
KM12 colon = tested on: KM12 colon
KM20L2 colon = tested on: KM20L2 colon
LOX IMVI melanoma = tested on: LOX IMVI melanoma
M14 melanoma = tested on: M14 melanoma
M19-MEL melanoma = tested on: M19-MEL melanoma
MALME-3M melanoma = tested on: MALME-3M melanoma
MCF7 breast = tested on: MCF7 breast
MDA-MB-231 breast = tested on: MDA-MB-231 breast
MDA-MB-435 = tested on: MDA-MB-435
MDA-N = tested on: MDA-N
MOLT-4 leukemia = tested on: MOLT-4 leukemia
NCI-H226 lung = tested on: NCI-H226 lung
NCI-H23 lung = tested on: NCI-H23 lung
NCI-H460 lung = tested on: NCI-H460 lung
NCI-H522 lung = tested on: NCI-H522 lung
NCI/ADR-RES ovarian = tested on: NCI/ADR-RES ovarian
OVCAR-3 ovarian = tested on: OVCAR-3 ovarian
OVCAR-4 ovarian = tested on: OVCAR-4 ovarian
OVCAR-5 ovarian = tested on: OVCAR-5 ovarian
OVCAR-8 ovarian = tested on: OVCAR-8 ovarian
P388 leukemia = tested on: P388 leukemia
P388/ADR leukemia = tested on: P388/ADR leukemia
PC-3 prostate = tested on: PC-3 prostate
RPMI-8226 leukemia = tested on: RPMI-8226 leukemia
RXF 393 renal = tested on: RXF 393 renal
SF-268 CNS = tested on: SF-268 CNS
SF-295 CNS = tested on: SF-295 CNS
SF-539 CNS = tested on: SF-539 CNS
SK-MEL-2 melanoma = tested on: SK-MEL-2 melanoma
SK-MEL-28 melanoma = tested on: SK-MEL-28 melanoma
SK-MEL-5 melanoma = tested on: SK-MEL-5 melanoma
SK-OV-3 ovarian = tested on: SK-OV-3 ovarian
SN12C renal = tested on: SN12C renal
SN12K1 renal = tested on: SN12K1 renal
SNB-19 CNS = tested on: SNB-19 CNS
SNB-75 CNS = tested on: SNB-75 CNS
SNB-78 CNS = tested on: SNB-78 CNS
SW-620 colon = tested on: SW-620 colon
U251 CNS = tested on: U251 CNS
UACC-257 melanoma = tested on: UACC-257 melanoma
UACC-62 melanoma = tested on: UACC-62 melanoma
UO-31 renal = tested on: UO-31 renal
XF 498 CNS = tested on: XF 498 CNS

CC(=O)O[C@H]1C(=O)O[C@@H]2C[C@H]3C(C)=CC(=O)[C@@H](O)[C@]3(C)[C@H]3[C@@]4(O)OC[C@]32[C@@H]1[C@@H](C)[C@H]4O
TGI (786-0 renal): 140 nM
GI50 (A498 renal): 187 nM
TGI (A498 renal): 1190 nM and 385 nM
GI50 (A549 NSCLC): 230 nM and 431 nM
TGI (A549 NSCLC): 3320 nM and 3930 nM
TGI (ACHN renal): 394 nM
TGI (BT-549 breast): 513 nM
GI50 (CAKI-1 renal): 75.2 nM
TGI (CAKI-1 renal): 2360 nM and 2130 nM
GI50 (CCRF-CEM leukemia): 15 nM
TGI (CCRF-CEM leukemia): 73 nM and 572 nM
GI50 (COLO 205 colon): 136 nM
TGI (COLO 205 colon): 365 nM and 686 nM
TGI (DLD-1 colon): 403 nM
TGI (DMS 114 small cell lung): 41 nM
TGI (DMS 273 small cell lung): 68.2 nM
TGI (DU-145 prostate): 176 nM
GI50 (EKVX NSCLC): 159 nM
TGI (EKVX NSCLC): 1120 nM and 219 nM
GI50 (HCC-2998 colon): 32 nM
TGI (HCC-2998 colon): 548 nM and 271 nM
GI50 (HCT-116 colon): < 10 nM
GI50 (HCT-15 colon): 39.9 nM
TGI (HCT-15 colon): 738 nM and 1030 nM
TGI (HL-60(TB) leukemia): 400 nM
TGI (HOP-18 NSCLC): 1530 nM
GI50 (HOP-62 NSCLC): < 12.2 nM
TGI (HOP-62 NSCLC): 70 nM and 314 nM
GI50 (HOP-92 NSCLC): 28.8 nM
TGI (HOP-92 NSCLC): 216 nM and 124 nM
TGI (HS 578T breast): 190 nM
GI50 (HT29 colon): 37.4 nM
TGI (HT29 colon): 1380 nM and 1260 nM
GI50 (IGROV1 ovarian): < 10 nM
TGI (IGROV1 ovarian): 1400 nM and 247 nM
GI50 (K-562 leukemia): 18.8 nM
TGI (K-562 leukemia): 125 nM and 128 nM
GI50 (KM12 colon): 17.8 nM
TGI (KM12 colon): 317 nM and 306 nM
TGI (KM20L2 colon): 2430 nM
GI50 (LOX IMVI melanoma): < 10 nM
TGI (LOX IMVI melanoma): 64.2 nM and 442 nM
TGI (M14 melanoma): 83.8 nM
TGI (M19-MEL melanoma): 72 nM
GI50 (MALME-3M melanoma): < 10 nM
TGI (MALME-3M melanoma): 62 nM and 42.9 nM
GI50 (MCF7 breast): < 10 nM
TGI (MCF7 breast): 59.3 nM and 54.3 nM
TGI (MDA-MB-231 breast): 399 nM
TGI (MDA-MB-435): 233 nM
TGI (MDA-N): 127 nM
GI50 (MOLT-4 leukemia): < 10 nM
GI50 (NCI-H226 lung): < 20.5 nM and 36.6 nM
TGI (NCI-H226 lung): 77.5 nM and 166 nM
GI50 (NCI-H23 lung): < 14.1 nM
TGI (NCI-H23 lung): 90.4 nM and 453 nM
GI50 (NCI-H460 lung): 13.6 nM and 42.7 nM
TGI (NCI-H460 lung): 187 nM
GI50 (NCI-H522 lung): < 11.6 nM
TGI (NCI-H522 lung): 226 nM and 58.2 nM
GI50 (NCI/ADR-RES ovarian): 844 nM
TGI (NCI/ADR-RES ovarian): 15200 nM and 51400 nM
GI50 (OVCAR-3 ovarian): 13.4 nM
TGI (OVCAR-3 ovarian): 172 nM and 120 nM
GI50 (OVCAR-4 ovarian): 39.4 nM
TGI (OVCAR-4 ovarian): 758 nM and 409 nM
GI50 (OVCAR-5 ovarian): 58.8 nM
TGI (OVCAR-5 ovarian): 1110 nM and 3510 nM
GI50 (OVCAR-8 ovarian): 26.6 nM
TGI (OVCAR-8 ovarian): 1550 nM and 218 nM
TGI (P388 leukemia): 555 nM
TGI (P388/ADR leukemia): 7510 nM
TGI (PC-3 prostate): 137 nM
GI50 (RPMI-8226 leukemia): < 14.2 nM
TGI (RPMI-8226 leukemia): 98.9 nM
GI50 (RXF 393 renal): 48.1 nM
TGI (RXF 393 renal): 503 nM and 108 nM
GI50 (SF-268 CNS): 17.3 nM
TGI (SF-268 CNS): 58.5 nM and 184 nM
GI50 (SF-295 CNS): 34 nM
TGI (SF-295 CNS): 291 nM and 206 nM
GI50 (SF-539 CNS): < 10 nM
TGI (SF-539 CNS): 15.1 nM and 66.3 nM
GI50 (SK-MEL-2 melanoma): 28.3 nM
TGI (SK-MEL-2 melanoma): 197 nM and 259 nM
GI50 (SK-MEL-28 melanoma): < 10.4 nM
TGI (SK-MEL-28 melanoma): 57.7 nM and 142 nM
GI50 (SK-MEL-5 melanoma): < 10 nM
TGI (SK-MEL-5 melanoma): 28.7 nM and 52 nM
GI50 (SK-OV-3 ovarian): 237 nM
TGI (SK-OV-3 ovarian): 4040 nM and 3350 nM
GI50 (SN12C renal): 30.4 nM
TGI (SN12K1 renal): 69.6 nM
GI50 (SNB-19 CNS): 13.8 nM and 38.2 nM
TGI (SNB-19 CNS): 99.5 nM and 135 nM
GI50 (SNB-75 CNS): < 17 nM
TGI (SNB-75 CNS): 104 nM and 154 nM
TGI (SNB-78 CNS): 384 nM
GI50 (SW-620 colon): 33 nM
TGI (SW-620 colon): 445 nM and 653 nM
GI50 (U251 CNS): < 10 nM
TGI (U251 CNS): 49 nM and 79.7 nM
GI50 (UACC-257 melanoma): 32.2 nM
TGI (UACC-257 melanoma): 137 nM
GI50 (UACC-62 melanoma): 27.1 nM
TGI (UACC-62 melanoma): 531 nM and 200 nM
GI50 (UO-31 renal): 95.8 nM
TGI (UO-31 renal): 1210 nM and 4450 nM
TGI (XF 498 CNS): 243 nM

Reference: PubChem BioAssay (NCI)
